{"source": "the NIST ThermoML archive (doi:10.1016/j.fluid.2011.10.009)", "conditions": "Liquid", "note": "± gives the expanded uncertainty stated by the source.", "data": [{"smiles": "Cc1cccc(C)c1", "note": "[1,3-dimethylbenzene]", "values": [{"measurement": "vapor or sublimation pressure", "setting": "412 K, Ebulliometric method (Recirculating still)", "value": "101.3 ± 1", "unit": "kPa"}]}, {"smiles": "Cc1ccc(C)cc1", "note": "[1,4-dimethylbenzene]", "values": [{"measurement": "vapor or sublimation pressure", "setting": "411.4 K, Ebulliometric method (Recirculating still)", "value": "101.3 ± 1", "unit": "kPa"}]}, {"smiles": "c1ccccc1", "note": "[benzene]", "values": [{"measurement": "vapor or sublimation pressure", "setting": "353.3 K, Closed cell (Static) method", "value": "101.3 ± 1", "unit": "kPa"}]}, {"smiles": "C1CCCCC1", "note": "[cyclohexane]", "values": [{"measurement": "vapor or sublimation pressure", "setting": "353.7 K, Ebulliometric method (Recirculating still)", "value": "101.3 ± 1", "unit": "kPa"}]}, {"smiles": "CCCCCCCCC", "note": "[nonane]", "values": [{"measurement": "vapor or sublimation pressure", "setting": "423.8 K, Ebulliometric method (Recirculating still)", "value": "101.3 ± 1", "unit": "kPa"}]}, {"smiles": "Cc1ccccc1", "note": "[toluene]", "values": [{"measurement": "vapor or sublimation pressure", "setting": "383.4 K, Closed cell (Static) method", "value": "101.3 ± 1", "unit": "kPa"}, {"measurement": "vapor or sublimation pressure", "setting": "383.8 K, Closed cell (Static) method", "value": "101.3 ± 1", "unit": "kPa"}]}]}
